# Assay results published in patent publication US20230117034A1, “PYRAZOLOTRIAZINES” (Bayer Aktiengesellschaft, priority 2019, published 2023).
# Columns and labels:
# [1] = system: MDA-MB-231, human breast cancer cells; experiment: Proliferation assay MDA-MB-231 (crystal violet, 4 days); assay type: cell-based; settings: Homo sapiens, MDA-MB-231, 96 h, MDA-MB-231 cells, median, read-out: Prolif-MDA MB-231, IC50-[mol/l] (median)
# Outline: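 CAL-120 or MDA-MB-231 cells grown 24 h, then exposed 4 days to compound (0.01–10 micromol/L, 0.1% DMSO). Crystal violet staining, absorbance at 595 nm, normalised to a zero-point plate (0%) and untreated cells (100%); IC50 by 4-parameter fit.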
# [2] = biological target: T1, CYCLIN K (nuclear staining in CAL-120 cells) (Homo sapiens, UniProt O75909); experiment: CYCLIN K nuclear protein level: immunofluorescence high content analysis (CAL-120); assay type: cell-based; settings: 24 h, 50% reduction of nuclear CCNK staining intensity, median, read-out: CYCLIN K degradation IF, DC50-[mol/l] (median)
# T1 construct: endogenous in cells; host or cells: CAL-120 human breast cancer cells (DSMZ ACC 459)
# Outline: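 CAL-120 breast cancer cells treated in dose-response for 24 h at 37 °C, PFA-fixed and immunostained for cyclin K with Hoechst counterstain. Confocal imaging quantified nuclear intensity; DC50 is the concentration giving 50% reduction of nuclear CCNK staining, normalized to DMSO and control.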
# CDK2/CycE = biological target: T2, CDK2/CycE (Homo sapiens, UniProt P24941); experiment: CDK2/CycE kinase assay (TR-FRET, 2 mM ATP); assay type: biochemical; settings: 2 mM ATP (high ATP); median; read-out: CDK2/CyclinE, 2 mM ATP (high ATP), IC50 (median)
# T2 construct: purchased ProQinase GmbH (Freiburg, Germany); host or cells: insect cells (Sf9)
# Outline: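 GST-tagged human CDK2 and CycE from Sf9 cells, about 10 ng/ml, pre-incubated 15 min at 22 °C with compound in Tris/HCl pH 8.0 buffer. Reaction with 2 mM ATP and 0.75 µM biotinylated peptide for 25 min at 22 °C. Phospho-RB antibody TR-FRET (665/620 nm ratio) read after 1 h; data normalised to no-inhibitor and no-enzyme controls.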
# T1 sequence (O75909 whole entry): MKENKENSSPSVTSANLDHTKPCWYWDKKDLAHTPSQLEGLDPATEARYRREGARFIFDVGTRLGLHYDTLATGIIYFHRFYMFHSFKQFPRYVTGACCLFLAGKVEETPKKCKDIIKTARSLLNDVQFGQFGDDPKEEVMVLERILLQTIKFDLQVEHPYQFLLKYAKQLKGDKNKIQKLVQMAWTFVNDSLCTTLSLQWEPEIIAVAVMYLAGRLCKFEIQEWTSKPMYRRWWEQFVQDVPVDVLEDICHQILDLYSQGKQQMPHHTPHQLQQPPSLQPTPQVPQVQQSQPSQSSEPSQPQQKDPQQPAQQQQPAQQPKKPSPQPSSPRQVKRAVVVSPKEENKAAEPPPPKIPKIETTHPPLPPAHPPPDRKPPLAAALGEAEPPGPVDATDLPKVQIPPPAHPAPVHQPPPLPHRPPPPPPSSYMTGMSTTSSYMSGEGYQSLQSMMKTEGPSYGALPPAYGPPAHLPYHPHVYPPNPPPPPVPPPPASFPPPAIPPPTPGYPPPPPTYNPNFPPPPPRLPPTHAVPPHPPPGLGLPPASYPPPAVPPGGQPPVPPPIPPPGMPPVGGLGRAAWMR
# T1 sequence (Q9NYV4 whole entry partner): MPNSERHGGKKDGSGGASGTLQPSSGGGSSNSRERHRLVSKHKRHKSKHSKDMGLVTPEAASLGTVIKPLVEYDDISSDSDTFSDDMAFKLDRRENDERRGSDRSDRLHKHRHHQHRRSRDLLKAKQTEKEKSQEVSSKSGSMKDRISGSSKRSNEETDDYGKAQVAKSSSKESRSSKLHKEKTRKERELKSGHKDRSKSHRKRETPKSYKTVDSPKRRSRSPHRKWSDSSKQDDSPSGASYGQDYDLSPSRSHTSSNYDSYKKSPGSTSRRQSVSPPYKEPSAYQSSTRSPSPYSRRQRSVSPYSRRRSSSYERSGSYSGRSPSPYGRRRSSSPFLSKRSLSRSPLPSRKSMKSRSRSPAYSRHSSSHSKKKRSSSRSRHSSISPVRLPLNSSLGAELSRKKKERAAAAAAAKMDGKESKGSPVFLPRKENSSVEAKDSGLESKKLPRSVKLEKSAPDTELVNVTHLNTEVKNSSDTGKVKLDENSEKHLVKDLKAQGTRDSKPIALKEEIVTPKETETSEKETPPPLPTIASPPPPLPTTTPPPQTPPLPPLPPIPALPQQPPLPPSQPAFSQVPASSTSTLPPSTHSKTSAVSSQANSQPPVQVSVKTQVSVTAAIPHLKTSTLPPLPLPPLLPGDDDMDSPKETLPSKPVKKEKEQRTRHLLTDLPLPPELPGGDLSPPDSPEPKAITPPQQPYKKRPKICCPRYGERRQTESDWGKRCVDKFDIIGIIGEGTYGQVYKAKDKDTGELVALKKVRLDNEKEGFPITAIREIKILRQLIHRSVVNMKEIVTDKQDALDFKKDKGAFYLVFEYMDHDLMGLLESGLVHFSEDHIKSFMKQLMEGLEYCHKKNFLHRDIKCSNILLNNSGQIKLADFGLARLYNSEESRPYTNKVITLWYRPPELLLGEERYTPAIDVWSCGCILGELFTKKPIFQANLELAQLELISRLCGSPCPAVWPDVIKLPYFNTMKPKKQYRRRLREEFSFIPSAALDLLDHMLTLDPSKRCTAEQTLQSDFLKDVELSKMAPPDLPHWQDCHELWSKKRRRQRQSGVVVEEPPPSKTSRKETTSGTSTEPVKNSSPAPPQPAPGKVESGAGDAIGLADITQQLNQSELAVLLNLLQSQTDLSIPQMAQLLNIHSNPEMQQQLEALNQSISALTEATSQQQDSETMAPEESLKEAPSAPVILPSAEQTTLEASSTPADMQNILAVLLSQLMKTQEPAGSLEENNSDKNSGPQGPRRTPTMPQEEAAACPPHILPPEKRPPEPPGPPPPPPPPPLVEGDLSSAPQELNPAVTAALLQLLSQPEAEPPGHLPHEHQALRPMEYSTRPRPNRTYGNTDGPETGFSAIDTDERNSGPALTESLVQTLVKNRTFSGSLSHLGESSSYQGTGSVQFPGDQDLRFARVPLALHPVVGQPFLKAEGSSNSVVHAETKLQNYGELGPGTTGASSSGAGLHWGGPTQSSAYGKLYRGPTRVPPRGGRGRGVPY
IC50 [1] [nM],DC50 [2] [nM],IC50 (CDK2/CycE) [nM],Compound
22.5,0.19,1790,"Brc1cnn2c(NCc3nc4ccccc4[nH]3)nc(N3C[C@@H]4C[C@H]3CN4)nc12 [Example 270, N-[(1H-benzimidazol-2-yl)methyl]-8-bromo-2-[(1S,4S)-2,5-diazabicyclo[2.2.1]heptan-2-yl]pyrazolo[1,5-a][1,3,5]triazin-4-amine]"
40,1.21,10000,"Brc1cnn2c(NCc3nc4ccccc4[nH]3)nc(N3CC4CCNC4C3)nc12 (stereo not drawn) [Example 271, 2-(2,3,3a,4,6,6a-hexahydro-1H-pyrrolo[2,3-c]pyrrol-5-yl)-N-(1H-benzimidazol-2-ylmethyl)-8-bromo-pyrazolo[1,5-a][1,3,5]triazin-4-amine]"
27.7,1.38,16200,"CNC1CCN(c2nc(NCc3nc4ccccc4[nH]3)n3ncc(Br)c3n2)CC1 [Example 272, N-[(1H-benzimidazol-2-yl)methyl]-8-bromo-2-[4-(methylamino)piperidin-1-yl]pyrazolo[1,5-a][1,3,5]triazin-4-amine]"
6.74,3.21,> 12900,"Fc1cccc2[nH]c(CNc3nc(N4CCOCC4)nc4c(C(F)(F)F)cnn34)nc12 [Example 274, N-[(4-fluoro-1H-benzimidazol-2-yl)methyl]-2-(morpholin-4-yl)-8-(trifluoromethyl)pyrazolo[1,5-a][1,3,5]triazin-4-amine]"
3.87,0.303,> 20000,"FC(F)(F)c1cnn2c(NCc3nc4cc(Cl)ccc4[nH]3)nc(N3CCOCC3)nc12 [Example 275, N-[(5-chloro-1H-benzimidazol-2-yl)methyl]-2-(morpholin-4-yl)-8-(trifluoromethyl)pyrazolo[1,5-a][1,3,5]triazin-4-amine]"
17.4,0.728,> 20000,"Fc1ccc2[nH]c(CNc3nc(N4CCOCC4)nc4c(C5CC5(F)F)cnn34)nc2c1F (stereo not drawn) [Example 278, N-[(4,5-difluoro-1H-benzimidazol-2-yl)methyl]-8-(2,2-difluorocyclopropyl)-2-(morpholin-4-yl)pyrazolo[1,5-a][1,3,5]triazin-4-amine]"
34.8,3.78,> 20000,"FC1(F)CC1c1cnn2c(NCc3nc4ccccc4[nH]3)nc(N3CCOCC3)nc12 (stereo not drawn) [Example 279, N-[(1H-benzimidazol-2-yl)methyl]-8-(2,2-difluorocyclopropyl)-2-(morpholin-4-yl)pyrazolo[1,5-a][1,3,5]triazin-4-amine]"
35,0.367,7620,"Brc1cnn2c(NCc3nc4ccccc4[nH]3)nc(N3C[C@H]4CNC[C@H]4C3)nc12 [Example 283, N-[(1H-benzimidazol-2-yl)methyl]-8-bromo-2-[(3aR,6aS)-hexahydropyrrolo[3,4-c]pyrrol-2(1H)-yl]pyrazolo[1,5-a][1,3,5]triazin-4-amine]"
90.6,3.46,2550,"CC(C)CNc1nc(NCc2nc3ccccc3[nH]2)n2ncc(Br)c2n1 [Example 285, N^4-[(1H-benzimidazol-2-yl)methyl]-8-bromo-N^2-(2-methylpropyl)pyrazolo[1,5-a][1,3,5]triazine-2,4-diamine]"
64.9,8.58,7210,"CC1(N)CCN(c2nc(NCc3nc4ccccc4[nH]3)n3ncc(Br)c3n2)CC1 [Example 290, 2-(4-amino-4-methylpiperidin-1-yl)-N-[(1H-benzimidazol-2-yl)methyl]-8-bromopyrazolo[1,5-a][1,3,5]triazin-4-amine]"
59.4,10,4070,"Brc1cnn2c(NCc3nc4ccccc4[nH]3)nc(N3CCC4(CCN4)CC3)nc12 [Example 291, N-[(1H-benzimidazol-2-yl)methyl]-8-bromo-2-(1,7-diazaspiro[3.5]nonan-7-yl)pyrazolo[1,5-a][1,3,5]triazin-4-amine]"
7.05,0.643,> 5190,"CN(CC(C)(C)O)c1nc(NCc2nc3c(F)c(F)ccc3[nH]2)n2ncc(C3CC3)c2n1 [Example 292, 1-[(8-cyclopropyl-4-{[(4,5-difluoro-1H-benzimidazol-2-yl)methyl]amino}pyrazolo[1,5-a][1,3,5]triazin-2-yl)(methyl)amino]-2-methylpropan-2-ol]"
23.7,2.55,2060,"CN(CC(C)(C)O)c1nc(NCc2nc3c(F)cccc3[nH]2)n2ncc(C3CC3)c2n1 [Example 295, 1-[(8-cyclopropyl-4-{[(4-fluoro-1H-benzimidazol-2-yl)methyl]amino}pyrazolo[1,5-a][1,3,5]triazin-2-yl)(methyl)amino]-2-methylpropan-2-ol]"
77.7,0.679,13300,"CN1CCN(c2nc(NCc3nc4ccccc4[nH]3)n3ncc(C(F)(F)F)c3n2)CC1 [Example 297, N-[(1H-benzimidazol-2-yl)methyl]-2-(4-methylpiperazin-1-yl)-8-(trifluoromethyl)pyrazolo[1,5-a][1,3,5]triazin-4-amine]"
10.5,1.44,> 19500,"CN1CCN(c2nc(NCc3nc4cc(Cl)ccc4[nH]3)n3ncc(C(F)(F)F)c3n2)CC1 [Example 298, N-[(5-chloro-1H-benzimidazol-2-yl)methyl]-2-(4-methylpiperazin-1-yl)-8-(trifluoromethyl)pyrazolo[1,5-a][1,3,5]triazin-4-amine]"
8.53,0.484,> 20000,"FC(F)(F)Cc1cnn2c(NCc3nc4cc(Cl)ccc4[nH]3)nc(N3CCOCC3)nc12 [Example 299, N-[(5-chloro-1H-benzimidazol-2-yl)methyl]-2-(morpholin-4-yl)-8-(2,2,2-trifluoroethyl)pyrazolo[1,5-a][1,3,5]triazin-4-amine]"

Compound,IC50 [1] [nM],DC50 [2] [nM],IC50 (CDK2/CycE) [nM]
"N[C@H]1[C@@H]2C[C@H]1CN(c1nc(NCc3nc4ccccc4[nH]3)n3ncc(Br)c3n1)C2 [Example 288, 2-[(1R,5S,6r)-6-amino-3-azabicyclo[3.1.1]heptan-3-yl]-N-[(1H-benzimidazol-2-yl)methyl]-8-bromopyrazolo[1,5-a][1,3,5]triazin-4-amine]",5.68,0.418,2640
"N[C@@H]1[C@@H]2C[C@H]1CN(c1nc(NCc3nc4ccccc4[nH]3)n3ncc(Br)c3n1)C2 [Example 289, 2-[(1R,5S,6s)-6-amino-3-azabicyclo[3.1.1]heptan-3-yl]-N-[(1H-benzimidazol-2-yl)methyl]-8-bromopyrazolo[1,5-a][1,3,5]triazin-4-amine]",10.3,1.76,5290
"Fc1ccc2[nH]c(CNc3nc(N4C[C@H]5CC[C@@H](C4)N5)nc4c(C5CC5)cnn34)nc2c1F [Example 294, 8-cyclopropyl-2-[(1R,5S)-3,8-diazabicyclo[3.2.1]octan-3-yl]-N-[(4,5-difluoro-1H-benzimidazol-2-yl)methyl]pyrazolo[1,5-a][1,3,5]triazin-4-amine]",3.37,0.56,17200
"Fc1cccc2[nH]c(CNc3nc(N4C[C@H]5CC[C@@H](C4)N5)nc4c(C5CC5)cnn34)nc12 [Example 296, 8-cyclopropyl-2-[(1R,5S)-3,8-diazabicyclo[3.2.1]octan-3-yl]-N-[(4-fluoro-1H-benzimidazol-2-yl)methyl]pyrazolo[1,5-a][1,3,5]triazin-4-amine]",4.4,1.15,5610
